Data on 27 molecules can be found in article PMC4896931, “The discovery of 2-substituted phenol quinazolines as potent RET kinase inhibitors with improved KDR selectivity” (European Journal of Medicinal Chemistry, 2016).

Where a name gives a salt, the structure may show the parent alone.

One series has as its target KDR (Homo sapiens, UniProt P35968).
A short description of the next series: in vitro. To be noted: mouse.
In series [1] the target is T1, BaF3 cells expressing KIF5B-RET (Homo sapiens, UniProt P07949+P33176).
T1 sequence (P33176+P07949 with tags, fused parts or gaps): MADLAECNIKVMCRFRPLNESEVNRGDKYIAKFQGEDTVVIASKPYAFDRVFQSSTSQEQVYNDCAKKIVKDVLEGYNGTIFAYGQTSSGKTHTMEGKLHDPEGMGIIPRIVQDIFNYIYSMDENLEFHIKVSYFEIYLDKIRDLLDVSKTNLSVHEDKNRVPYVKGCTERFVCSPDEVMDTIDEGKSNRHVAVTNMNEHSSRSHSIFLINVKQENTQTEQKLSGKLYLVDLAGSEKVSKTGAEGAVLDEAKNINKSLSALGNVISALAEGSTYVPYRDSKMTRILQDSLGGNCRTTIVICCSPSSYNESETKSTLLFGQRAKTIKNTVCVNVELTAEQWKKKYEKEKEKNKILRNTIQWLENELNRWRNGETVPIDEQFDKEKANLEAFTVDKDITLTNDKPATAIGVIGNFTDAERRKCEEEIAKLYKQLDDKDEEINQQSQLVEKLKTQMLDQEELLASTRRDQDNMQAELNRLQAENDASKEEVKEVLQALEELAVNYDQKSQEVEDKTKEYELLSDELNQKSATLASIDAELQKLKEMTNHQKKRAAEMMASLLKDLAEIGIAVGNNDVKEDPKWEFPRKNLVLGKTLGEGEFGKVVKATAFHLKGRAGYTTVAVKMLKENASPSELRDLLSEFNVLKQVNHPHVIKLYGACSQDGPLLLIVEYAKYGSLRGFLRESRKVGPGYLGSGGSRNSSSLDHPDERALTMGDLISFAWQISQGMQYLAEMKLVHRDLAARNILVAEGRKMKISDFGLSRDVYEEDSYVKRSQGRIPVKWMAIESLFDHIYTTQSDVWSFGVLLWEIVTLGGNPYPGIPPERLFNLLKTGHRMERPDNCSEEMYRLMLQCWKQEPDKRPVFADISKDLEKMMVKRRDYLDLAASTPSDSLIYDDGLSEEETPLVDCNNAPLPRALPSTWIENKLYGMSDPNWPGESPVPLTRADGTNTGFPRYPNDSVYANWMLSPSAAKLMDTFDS

The nature of series [2]: Human hepatocyte stability. The class given is in vitro ADME. To be noted: human hepatocytes.
Series [3] is described as follows: Mouse hepatocyte stability. The class given is in vitro ADME. As to conditions: mouse hepatocytes.
The nature of a further series: Aqueous solubility. To be noted: aqueous medium (not further specified). It is filed as physicochemical.
A further series in a line: Caco-2 permeability. To be noted: human; Caco-2 cells. It is filed as in vitro ADME.
The nature of series [4]: Mouse pharmacokinetics (intravenous and oral). The class given is in vivo, male CD-1 mice. How it is done: All studies were conducted after review by the Animal Welfare and Ethical Review Body at CRUK:MI and in accordance with the University of Manchester Policy on the use of animals in research. All work was carried out in compliance with the Animals (Scientific Procedures) Act 1986. Pharmacokinetics were studied in male CD-1 mice following single intravenous or oral administration. Blood samples were collected as dried blood spots and assayed following solvent extraction through a phospholipid removal plate followed by LC-MS/MS analysis. The resulting concentration-time data were analysed by non-compartmental methods (PK Solver, Excel Add-In).

Where [5] appears, read: non-modified (wild-type, non RET-driven) BaF3 cells.

KDR, sequence (P35968 20-1356): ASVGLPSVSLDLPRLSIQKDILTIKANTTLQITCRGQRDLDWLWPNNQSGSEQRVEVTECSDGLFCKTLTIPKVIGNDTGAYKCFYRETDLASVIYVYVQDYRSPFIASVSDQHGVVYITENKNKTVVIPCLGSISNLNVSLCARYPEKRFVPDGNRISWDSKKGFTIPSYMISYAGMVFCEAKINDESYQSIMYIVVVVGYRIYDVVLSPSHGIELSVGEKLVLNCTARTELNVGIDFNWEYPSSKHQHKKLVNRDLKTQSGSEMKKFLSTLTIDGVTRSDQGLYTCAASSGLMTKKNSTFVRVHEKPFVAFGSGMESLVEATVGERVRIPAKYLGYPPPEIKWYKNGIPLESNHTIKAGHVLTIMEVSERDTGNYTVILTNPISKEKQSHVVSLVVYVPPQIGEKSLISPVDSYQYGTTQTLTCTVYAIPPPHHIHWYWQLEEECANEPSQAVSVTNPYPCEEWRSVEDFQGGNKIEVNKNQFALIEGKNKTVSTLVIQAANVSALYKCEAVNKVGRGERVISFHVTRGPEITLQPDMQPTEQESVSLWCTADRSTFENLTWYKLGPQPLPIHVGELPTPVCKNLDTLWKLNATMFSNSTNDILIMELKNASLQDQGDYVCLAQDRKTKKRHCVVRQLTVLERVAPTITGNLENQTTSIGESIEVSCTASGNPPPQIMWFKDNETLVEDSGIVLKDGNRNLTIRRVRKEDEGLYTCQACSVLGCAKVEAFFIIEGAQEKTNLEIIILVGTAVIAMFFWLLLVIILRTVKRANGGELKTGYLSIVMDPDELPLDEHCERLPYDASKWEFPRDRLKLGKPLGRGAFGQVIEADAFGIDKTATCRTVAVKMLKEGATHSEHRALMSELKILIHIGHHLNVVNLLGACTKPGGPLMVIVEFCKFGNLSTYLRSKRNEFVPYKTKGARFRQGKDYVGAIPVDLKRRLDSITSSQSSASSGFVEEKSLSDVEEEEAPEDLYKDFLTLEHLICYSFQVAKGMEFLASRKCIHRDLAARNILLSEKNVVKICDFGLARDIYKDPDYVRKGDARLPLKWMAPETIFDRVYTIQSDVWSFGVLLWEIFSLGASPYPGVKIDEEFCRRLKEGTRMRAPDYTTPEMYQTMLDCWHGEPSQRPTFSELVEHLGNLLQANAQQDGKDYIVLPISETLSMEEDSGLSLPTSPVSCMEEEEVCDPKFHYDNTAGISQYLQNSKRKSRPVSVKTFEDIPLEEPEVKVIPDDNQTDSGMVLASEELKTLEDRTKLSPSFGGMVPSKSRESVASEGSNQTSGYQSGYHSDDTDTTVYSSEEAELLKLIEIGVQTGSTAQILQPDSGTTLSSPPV

In the case of `COc1cc2ncnc(Nc3cc(O)c(C)cc3F)c2cc1OC` [Compound 30], the IC50 at KDR turned out to be 2.3 nM; in series [1] it was 41 nM. The IC50 at 48 h in “in vitro” (setting [5]) was more than 1000 nM. The hepatocyte CLint in series [2] amounted to 91.9 µL/min/1e6 cells.

For the molecule `COc1cc2ncnc(Nc3cccc(O)c3O)c2cc1OC` [Compound 10, 3-((6,7-Dimethoxyquinazolin-4-yl)amino)benzene-1,2-diol hydrochloride], the IC50 at 48 h in the series “in vitro” (setting [5]) is more than 10000 nM. The same molecule returned a hepatocyte CLint in series [2] of 95.5 µL/min/1e6 cells.

On KDR, `COc1cccc(Nc2ncnc3cc(OC)c(OC)cc23)c1` [Compound 9] returned an IC50 of 4800 nM.

In turn, `COc1cc2ncnc(Nc3cc(F)cc(O)c3C)c2cc1OC` [Compound 35, 3-((6,7-Dimethoxyquinazolin-4-yl)amino)-5-fluoro-2-methylphenol hydrochloride] registered an IC50 at 48 h in the series “in vitro” (setting [5]) of more than 10000 nM. The hepatocyte CLint in series [2] came to 54.8 µL/min/1e6 cells.

With `COc1cc2ncnc(Nc3cccc(O)c3Cl)c2cc1OC` [Compound 12, 2-Chloro-3-((6,7-dimethoxyquinazolin-4-yl)amino)phenol hydrochloride], the IC50 at 48 h in “in vitro” was more than 10000 nM. The molecule also registered a hepatocyte CLint in series [2] of 174 µL/min/1e6 cells.

As to `COc1cc2ncnc(Nc3c(Cl)ccc(O)c3C)c2cc1OC` [Compound 37, 4-Chloro-3-((6,7-dimethoxyquinazolin-4-yl)amino)-2-methylphenol], the IC50 on KDR was more than 10000 nM; in series [1], 3600 nM.

For `COc1cc2ncnc(Nc3c(Cl)ccc(O)c3F)c2cc1OC` [Compound 34, 4-Chloro-3-((6,7-dimethoxyquinazolin-4-yl)amino)-2-fluorophenol], in the series “in vitro”, the IC50 at 48 h is more than 10000 nM. Moreover, in series [2], the hepatocyte CLint turned out to be 93.3 µL/min/1e6 cells.

Regarding `COc1cc2ncnc(Nc3cc(O)c(F)cc3F)c2cc1OC` [Compound 28], the IC50 on KDR amounted to 9.5 nM; in series [1], 53 nM.

Take `COc1cc2ncnc(Nc3cccc(O)c3)c2cc1OC` [Compound 6]: in the series “in vitro” (setting [5]), the IC50 at 48 h was more than 10000 nM. The molecule further gave a hepatocyte CLint in series [2] of 76.9 µL/min/1e6 cells.

Consider `COc1cc2ncnc(Nc3ccc(O)cc3)c2cc1OC` [Compound 7], for which the IC50 at KDR came out at 2800 nM.

On KDR, `COc1cc2ncnc(Nc3cccc(N)c3)c2cc1OC` [Compound 8] showed an IC50 of 7600 nM.

As for `COc1cc2ncnc(Nc3cccc(O)c3OC)c2cc1OC` [Compound 15, 3-((6,7-Dimethoxyquinazolin-4-yl)amino)-2-methoxyphenol], on KDR, the IC50 was more than 10000 nM.

As for `COc1cc2ncnc(Nc3cccc(O)c3C)c2cc1OC` [Compound 13, 3-((6,7-Dimethoxyquinazolin-4-yl)amino)-2-methylphenol hydrochloride], the IC50 at 48 h in “in vitro” was more than 10000 nM. Moreover, in series [2], the hepatocyte CLint was determined as 28.4 µL/min/1e6 cells.

For the molecule `COc1cc2ncnc(Nc3c(F)ccc(O)c3Cl)c2cc1OC` [Compound 40, 2-Chloro-3-((6,7-dimethoxyquinazolin-4-yl)amino)-4-fluorophenol], the IC50 against KDR turned out to be 1100 nM. Moreover, the IC50 at 48 h in “in vitro” is more than 10000 nM. This molecule also returned a hepatocyte CLint in series [2] of 66.7 µL/min/1e6 cells.

In the case of `COc1cc2ncnc(Nc3c(Cl)ccc(O)c3Cl)c2cc1OC` [Compound 39, 2,4-Dichloro-3-((6,7-dimethoxyquinazolin-4-yl)amino)phenol], the half-maximal inhibitory concentration (IC50) against KDR came to 1400 nM.

Take `COc1cc2ncnc(Nc3ccc(Br)cc3F)c2cc1OC` [Compound 4]: the concentration for half-maximal inhibition (IC50) against KDR stood at 460 nM; in series [1], 1700 nM.

The molecule `COc1cc2ncnc(Nc3cccc(O)c3Br)c2cc1OC` [Compound 11, 2-Bromo-3-((6,7-dimethoxyquinazolin-4-yl)amino)phenol hydrochloride] came in with an IC50 at 48 h in “in vitro” (setting [5]) of more than 10000 nM. In addition, the hepatocyte CLint in series [2] was 157 µL/min/1e6 cells.

Consider `COc1cc2ncnc(Nc3ccc(Cl)c(O)c3)c2cc1OC` [Compound 21], for which the IC50 against KDR stood at 58 nM; in series [1], 940 nM.

As to `COc1cc2ncnc(Nc3cccc(O)c3C(F)(F)F)c2cc1OC` [Compound 17, 3-((6,7-Dimethoxyquinazolin-4-yl)amino)-2-(trifluoromethyl)phenol], the IC50 against KDR was more than 10000 nM.

In turn, `COc1cc2ncnc(Nc3cccc(O)c3C#N)c2cc1OC` [Compound 18, 2-((6,7-Dimethoxyquinazolin-4-yl)amino)-6-hydroxybenzonitrile] yielded an IC50 against KDR of more than 10000 nM.

Molecule `COc1cc2ncnc(Nc3cccc(O)c3F)c2cc1OC` [Compound 14, 3-((6,7-Dimethoxyquinazolin-4-yl)amino)-2-fluorophenol] displayed an IC50 on KDR of 280 nM. That is a sub-micromolar value.

As for `COc1cc2ncnc(Nc3c(F)ccc(O)c3C)c2cc1OC` [Compound 36, 3-((6,7-Dimethoxyquinazolin-4-yl)amino)-4-fluoro-2-methylphenol hydrochloride], the hepatocyte CLint came to 38.1 µL/min/1e6 cells in series [3] and 20.9 µL/min/1e6 cells in series [2]. Moreover, the solubility in the series “Aqueous solubility” was more than 100 µM. The Papp in “Caco-2 permeability” amounted to 8.2 ×10⁻⁶ cm/s. The Total blood clearance in series [4] (intravenous) is given as less than 10 % LBF. For the same molecule, the Oral half-life result in series [4] (oral) is “approximately 2 h”. For the same molecule, the bioavailability entry in series [4] (oral) is “approximately 35%”.

Turning to `COc1cc2ncnc(Nc3cc(O)ccc3Cl)c2cc1OC` [Compound 26, 4-Chloro-3-((6,7-dimethoxyquinazolin-4-yl)amino)phenol], the IC50 on KDR amounted to 71 nM; in series [1], 85 nM.

In the case of `COc1cc2ncnc(Oc3cccc(O)c3)c2cc1OC` [Compound 42, 3-((6,7-Dimethoxyquinazolin-4-yl)oxy)phenol], the IC50 on KDR turned out to be 150 nM; in series [1], 620 nM.

As to `COc1cc2ncnc(Nc3c(F)ccc(O)c3F)c2cc1OC` [Compound 33, 3-((6,7-Dimethoxyquinazolin-4-yl)amino)-2,4-difluorophenol], the figures for the IC50 (against KDR; in series [1]) were 69 nM and 120 nM, respectively. In the series “in vitro” (setting [5]), the IC50 at 48 h is more than 10000 nM. Further, the intrinsic metabolic clearance (hepatocyte CLint) in series [2] turned out to be 68.9 µL/min/1e6 cells.

Turning to `COc1cc2ncnc(Nc3cc(O)ccc3F)c2cc1OC` [Compound 25], the values for the IC50 (against KDR; in series [1]) were 20 nM and 53 nM, respectively.

Turning to `COc1cc2ncnc(Nc3ccc(C)c(O)c3)c2cc1OC` [Compound 20], the IC50 amounted to 18 nM on KDR and 500 nM in series [1].
